Source: patent US9725449B2, “Tricyclic compounds as anticancer agents” (BRISTOL-MYERS SQUIBB COMPANY, priority 2015, dated 2017)

The compounds below were run against BRD4 (Homo sapiens, UniProt O60885) (assay: Time resolved fluorescence resonance energy transfer (TR-FRET) binding assay, bromodomain BRD4). Settings: one of the FRET assays described; read-out: FRET BRD4 IC50.

Row | Compound | IC50 [nM]
1 | [2H]C([2H])([2H])c1nnn(C)c1-c1cnc2c3c(OC)ncc(S(C)(=O)=O)c3n(C(c3ncccc3F)C3CCC(F)(F)CC3)c2c1 (stereo not drawn) [Example 72, 8-[(4,4-Difluorocyclohexyl)(3-fluoropyridin-2-yl)methyl]-10-methanesulfonyl-13-methoxy-5-[4-(^2H3)methyl-1-methyl-1H-1,2,3-triazol-5-yl]-3,8,12-triazatricyclo[7.4.0.0^2,^7]trideca-1(13),2(7),3,5,9,11-hexaene] | < 10
2 | Cc1nnn(C)c1-c1cnc2c3ccnc(F)c3n([C@H](c3ccccc3F)C3CCOCC3)c2c1 [Example 29, 5-(Dimethyl-1H-1,2,3-triazol-5-yl)-10-fluoro-8-[(S)-(2-fluorophenyl)(oxan-4-yl)methyl]-3,8,11-triazatricyclo[7.4.0.0^2,^7]trideca-1(13),2(7),3,5,9,11-hexaene] | < 1
3 | Cc1noc(C)c1-c1cnc2c3c(NS(C)(=O)=O)ncc(S(C)(=O)=O)c3n([C@H](c3ccccc3)C3CCOCC3)c2c1 [Example 102, N-[5-(Dimethyl-1,2-oxazol-4-yl)-10-methanesulfonyl-8-[(S)-oxan-4-yl(phenyl)methyl]-3,8,12-triazatricyclo[7.4.0.0^2,^7]trideca-1(13),2(7),3,5,9,11-hexaen-13-yl]methanesulfonamide] | < 10
4 | Cc1noc(C)c1-c1cnc2c3cnc(Cl)cc3n(C(c3ccc(Cl)cn3)C3CCOCC3)c2c1 (single isomer, unassigned) [Example 328] | < 10
5 | Cc1nnn(C)c1-c1ccc2c3ncc(C(C)(C)O)cc3n([C@H](c3ccccc3)C3CCOCC3)c2n1 [Example 380] | < 10
6 | Cc1noc(C)c1-c1cnc2c3c(OCC4CC4)ncc(S(C)(=O)=O)c3n([C@H](c3ccccc3)C3CCOCC3)c2c1 [Example 103, 13-(Cyclopropylmethoxy)-5-(dimethyl-1,2-oxazol-4-yl)-10-methanesulfonyl-8-[(S)-oxan-4-yl(phenyl)methyl]-3,8,12-triazatricyclo[7.4.0.0^2,^7]trideca-1(13),2(7),3,5,9,11-hexaene] | < 10
7 | [2H]C([2H])([2H])c1nnn(C)c1-c1cnc2c3ccc(N4CCN(CC(F)(F)F)CC4)nc3n([C@H](c3ccccc3)C3CCOCC3)c2c1 [Example 154, 5-[4-(^2H3)Methyl-1-methyl-1H-1,2,3-triazol-5-yl]-8-[(S)-oxan-4-yl(phenyl)methyl]-11-[4-(2,2,2-trifluoroethyl)piperazin-1-yl]-3,8,10-triazatricyclo[7.4.0.0^2,^7]trideca-1(9),2(7),3,5,10,12-hexaene] | < 10
8 | COc1nccc2c3ncc(-c4c(C)nnn4C)cc3n(C(c3cc(F)ccc3F)C3CCOCC3)c12 (racemic) [Example 26, 8-[(2,5-Difluorophenyl)(oxan-4-yl)methyl]-5-(dimethyl-1H-1,2,3-triazol-5-yl)-10-methoxy-3,8,11-triazatricyclo[7.4.0.0^2,^7]trideca-1(13),2(7),3,5,9,11-hexaene] | < 10
9 | [2H]C([2H])([2H])c1nnn(C)c1-c1cnc2c3cnc(Cl)cc3n([C@H](c3ncccc3F)C3CCOCC3)c2c1 (stereo in doubt) [Example 314, 11-Chloro-8-[(3-fluoropyridin-2-yl)(oxan-4-yl)methyl]-5-[4-(^2H3)methyl-1-methyl-1H-1,2,3-triazol-5-yl]-3,8,12-triazatricyclo[7.4.0.0^2,^7]trideca-1(9),2(7),3,5,10,12-hexaene] | < 10
10 | [2H]C([2H])([2H])c1nnn(C)c1-c1cnc2c3c(OC4COC4)ncc(S(C)(=O)=O)c3n([C@H](c3ccccc3)C3CCOCC3)c2c1 [Example 111, 10-Methanesulfonyl-5-[4-(^2H3)methyl-1-methyl-1H-1,2,3-triazol-5-yl]-8-[(S)-oxan-4-yl(phenyl)methyl]-13-(oxetan-3-yloxy)-3,8,12-triazatricyclo[7.4.0.0^2,^7]trideca-1(13),2(7),3,5,9,11-hexaene] | < 10
11 | [2H]C([2H])([2H])c1nnn(C)c1-c1cnc2c3ccc(N4C[C@@H](C)N[C@@H](C)C4)nc3n([C@H](c3ccccc3)C3CCOCC3)c2c1 [Example 252, 11-[(3R,5S)-3,5-Dimethylpiperazin-1-yl]-5-[4-(^2H3)methyl-1-methyl-1H-1,2,3-triazol-5-yl]-8-[(S)-oxan-4-yl(phenyl)methyl]-3,8,10-triazatricyclo[7.4.0.0^2,^7]trideca-1(13),2(7),3,5,9,11-hexaene] | < 1
12 | [2H]C([2H])([2H])c1nnn(C)c1-c1cnc2c3ccncc3n([C@H](c3ccccc3)C3CCOCC3)c2c1 [Example 299, 5-[4-(^2H3)Methyl-1-methyl-1H-1,2,3-triazol-5-yl]-8-[(S)-oxan-4-yl(phenyl)methyl]-3,8,11-triazatricyclo[7.4.0.0^2,^7]trideca-1(9),2(7),3,5,10,12-hexaene] | < 1
13 | [2H]C([2H])([2H])c1nnn(C)c1-c1cnc2c3c(OC)ncc(S(C)(=O)=O)c3n([C@H](c3ccccc3F)C3CCOCC3)c2c1 [Example 51, 8-[(S)-(2-Fluorophenyl)(oxan-4-yl)methyl]-10-methanesulfonyl-13-methoxy-5-[4-(^2H3)methyl-1-methyl-1H-1,2,3-triazol-5-yl]-3,8,12-triazatricyclo[7.4.0.0^2,^7]trideca-1(13),2(7),3,5,9,11-hexaene] | < 1
14 | [2H]C([2H])([2H])c1nnn(C)c1-c1cnc2c3ccc(N4CC(N5CCS(=O)(=O)CC5)C4)nc3n([C@H](c3ccccc3)C3CCOCC3)c2c1 [Example 186, 4-(1-{5-[4-(^2H3)Methyl-1-methyl-1H-1,2,3-triazol-5-yl]-8-[(S)-oxan-4-yl(phenyl)methyl]-3,8,10-triazatricyclo[7.4.0.0^2,^7]trideca-1(9),2(7),3,5,10,12-hexaen-11-yl}azetidin-3-yl)-1λ^6,4-thiomorpholine-1,1-dione] | < 10
15 | [2H]C([2H])([2H])c1nnn(C)c1-c1cnc2c3c(OC(C)C)ncc(S(C)(=O)=O)c3n(C(c3ncccc3F)C3CCOCC3)c2c1 (stereo not drawn) [Example 71, 8-[(3-Fluoropyridin-2-yl)(oxan-4-yl)methyl]-10-methanesulfonyl-5-[4-(^2H3)methyl-1-methyl-1H-1,2,3-triazol-5-yl]-13-(propan-2-yloxy)-3,8,12-triazatricyclo[7.4.0.0^2,^7]trideca-1(13),2(7),3,5,9,11-hexaene] | < 1500
16 | CC(=O)c1cnc2c3ccc(-c4c(C)nnn4C)nc3n([C@@H](c3ccccc3)C3CCOCC3)c2c1 [Example 377, 1-[11-(Dimethyl-1H-1,2,3-triazol-5-yl)-8-[(R)-oxan-4-yl(phenyl)methyl]-3,8,10-triazatricyclo[7.4.0.0^2,^7]trideca-1(9),2(7),3,5,10,12-hexaen-5-yl]ethan-1-one] | < 10
17 | [2H]C([2H])([2H])c1nnn(C)c1-c1cnc2c3c(OCC4CC4)ncc(S(C)(=O)=O)c3n([C@H](c3ccccc3)C3CCC(F)(F)CC3)c2c1 [Example 94, 13-(Cyclopropylmethoxy)-8-[(S)-(4,4-difluorocyclohexyl)(phenyl)methyl]-10-methanesulfonyl-5-[4-(^2H3)methyl-1-methyl-1H-1,2,3-triazol-5-yl]-3,8,12-triazatricyclo[7.4.0.0^2,^7]trideca-1(13),2(7),3,5,9,11-hexaene] | < 10
18 | COc1nccc2c3ncc(-c4c(C)nnn4C)cc3n([C@H](c3ccccc3)C3CCOCC3)c12 [Example 13, 5-(Dimethyl-1H-1,2,3-triazol-5-yl)-10-methoxy-8-[(S)-oxan-4-yl(phenyl)methyl]-3,8,11-triazatricyclo[7.4.0.0^2,^7]trideca-1(13),2(7),3,5,9,11-hexaene] | < 1
19 | [2H]C([2H])([2H])c1nnn(C)c1-c1cnc2c3c(C(C)(C)O)cncc3n([C@H](c3ccccc3)C3CCOCC3)c2c1 [Example 298, 2-{5-[4-(^2H3)Methyl-1-methyl-1H-1,2,3-triazol-5-yl]-8-[(S)-oxan-4-yl(phenyl)methyl]-3,8,11-triazatricyclo[7.4.0.0^2,^7]trideca-1(9),2(7),3,5,10,12-hexaen-13-yl}propan-2-ol] | < 10
20 | Cc1cccnc1C(C1CCOCC1)n1c2cc(-c3c(C)nnn3C)ncc2c2ncc(C(C)(C)O)cc21 (single isomer, unassigned) [Example 374] | < 10
21 | [2H]C([2H])([2H])c1nnn(C)c1-c1cnc2c3c(NCC(F)(F)F)ncc(S(C)(=O)=O)c3n([C@H](c3ccccc3)C3CCOCC3)c2c1 [Example 277, 10-Methanesulfonyl-5-[4-(^2H3)methyl-1-methyl-1H-1,2,3-triazol-5-yl]-8-[(S)-oxan-4-yl(phenyl)methyl]-N-(2,2,2-trifluoroethyl)-3,8,12-triazatricyclo[7.4.0.0^2,^7]trideca-1(13),2(7),3,5,9,11-hexaen-13-amine] | < 1
22 | [2H]C([2H])([2H])c1nnn(C)c1-c1cnc2c3cc(C(C)(C)O)cnc3n([C@H](c3ncccc3F)C3CCOCC3)c2c1 [Example 352, 2-{8-[(S)-(3-Fluoropyridin-2-yl)(oxan-4-yl)methyl]-5-[4-(^2H3)methyl-1-methyl-1H-1,2,3-triazol-5-yl]-3,8,10-triazatricyclo[7.4.0.0^2,^7]trideca-1(13),2(7),3,5,9,11-hexaen-12-yl}propan-2-ol] | < 10
23 | [2H]C([2H])([2H])c1nnn(C)c1-c1cnc2c3c(OCC)ncc(S(C)(=O)=O)c3n(C(c3ncccc3F)C3CCC(F)(F)CC3)c2c1 (stereo not drawn) [Example 74, 8-[(4,4-Difluorocyclohexyl)(3-fluoropyridin-2-yl)methyl]-13-ethoxy-10-methanesulfonyl-5-[4-(^2H3)methyl-1-methyl-1H-1,2,3-triazol-5-yl]-3,8,12-triazatricyclo[7.4.0.0^2,^7]trideca-1(13),2(7),3,5,9,11-hexaene] | < 10
24 | [2H]C([2H])([2H])c1nnn(C)c1-c1cnc2c3c(NCC(F)(F)F)nccc3n([C@H](c3ccccc3)C3CCOCC3)c2c1 [Example 134, 5-[4-(^2H3)Methyl-1-methyl-1H-1,2,3-triazol-5-yl]-8-[(S)-oxan-4-yl(phenyl)methyl]-N-(2,2,2-trifluoroethyl)-3,8,12-triazatricyclo[7.4.0.0^2,^7]trideca-1(13),2(7),3,5,9,11-hexaen-13-amine] | < 1
